Measured values from patent US10087144B2, “Agents for use in the treatment of cardiovascular and inflammatory diseases structurally based on 4(1 H)-quinolone” (UCL Business PLC, priority 2015, dated 2018).
Where two headings read alike, the source gives them in different places.

What was measured:
[1] = tested on: rat mesenteric artery smooth muscle cells; experiment: Ca2+ flux in response to Angiotensin II in isolated rat mesenteric artery smooth muscle cells (FLIPR); format: cell-based; conditions: for inhibition at 1 µM / inhibition at 10 µM: Rattus norvegicus; for inhibition at 1 µM: read-out: % inhibition 1 μM; for inhibition at 10 µM: read-out: % inhibition 10 μM
Procedure: Mesenteric artery smooth muscle cells were isolated from male Sprague-Dawley rats (200-250 g). Mesenteric arteries were dissected, cleared of extraneous tissue and incubated in an enzyme solution containing collagenase type I (1 mg/ml), soybean trypsin inhibitor (0.25 mg/ml), bovine albumin (1 mg/ml), CaCl2 (0.2 mM), 100 U/ml penicillin (100 U/ml) and streptomycin (100 μg/ml) in a humidified incubator with 5% CO2 in air. The enzyme solution was replenished at 30 min intervals and cells were pelleted by centrifugation (200 g, 5 min) and differentially plated (×2) for 15 min in Dulbecco's Modified Eagle's Medium (DMEM) supplemented with penicillin (100 U/ml), streptomycin (100 μg/ml), L-Glutamine (2 mM) and 10% heat inactivated New Zealand foetal calf serum. Cells were passaged by trypsinisation and viability determined by trypan blue exclusion.
Measurements of Ca^2+ flux in response to Angiotensin II were conducted using a Fluorescent Imaging Plate Reader (FLIPR; Molecular Devices). Cells were plated at a density of 10,000 cells/well into black, clear-bottomed 96-well plates in DMEM supplemented with penicillin (100 U/ml), streptomycin (100 μg/ml), L-Glutamine (2 mM) and 10% heat inactivated New Zealand foetal calf serum. 24 hrs later the cells were incubated with Fluo-3-AM (4 μM) for 60 min at 37° C. Once dye-loaded, the cells were washed thoroughly with the proprietary assay buffer to remove any unincorporated dye. The cells were then incubated with varying concentrations of a number of representative NPR-C agonist molecules of the invention, C-type natriuretic peptide or vehicle (DMSO) and placed into the FLIPR. After 15 mins, Angiotensin II (100 nM) was automatically dispensed into each well and the fluorescence signal followed for 5 mins. Potency was determined by comparison of the peak fluorescence in each test well (run in triplicate) with that of the control (Angiotensin II alone). Background fluorescence (assay buffer only) was subtracted from all values.

rat mesenteric arteries = experiment: Vasoreactivity in rat mesenteric arteries in vitro (relaxation of U46619-contracted vessels, tension myograph); conditions: for EC50: vasorelaxation, calculated from concentration-response curves
Procedure: Male rats (Sprague-Dawley; 200-250 g) were stunned and killed by cervical dislocation. The mesentery was removed and third-order arteries mounted in an automated tension myograph (Danish Myotechnology). After an equilibration period of 45 min, vessels were normalized and diameter determined. Following normalization, each vessel was contracted repeatedly with the thromboxane A2-mimetic 9,11-dideoxy-11^α,9^α-epoxymethano-prostaglandin F2α (U46619; 1 μM) until the response was reproducible. The vessels were then washed to restore basal tone before contracting to approximately 50% of the maximum U46619-induced response. Once a stable response to U46619 was achieved, cumulative concentration-response curves were constructed with a variety of NPR-C agonists of the invention at varying concentrations (0.001-30 μM), or vehicle (DMSO). In some studies, concentration-response curves to NPR-C agonists were conducted in the presence of the NPR-C antagonist M372049 (10 μM). Only one curve to any one agonist was constructed in any single tissue.

human platelets = experiment: Human platelet aggregation in platelet rich plasma; format: cell-based; conditions: for inhibition at 1 µM: Homo sapiens
Procedure: Blood samples (35 ml) were taken from healthy volunteers who had abstained from aspirin, non-steroidal anti-inflammatory drugs or paracetamol for 14 days. Blood was collected by venepuncture into tri-sodium citrate (3.2% w/v) and centrifuged at 175 g for 15 min to obtain platelet rich plasma (PRP). Platelet poor plasma (PPP) was obtained by centrifugation of PRP at 15000 g for 5 min. The PRP (100 μl) was then added to the wells of 96-well plates and incubated for 15 mins with representative NPR-C agonists of the invention or vehicle (DMSO). Subsequently, platelet agonists (10 μl each) were added to wells in triplicate: adenosine diphosphate (ADP, 0.1-30 μM), arachidonic acid (AA, 0.03-1.3 mM), collagen (type I equine tendon 0.1-30 μg/ml), adrenaline (0.001-100 μM), ristocetin (0.2-3 mg/ml), TRAP6 (thrombin receptor activating peptide) amide (SFLLRN; 0.1-30 μM), U46619 (0.1-30 μM) or vehicle. Plates were then immediately placed in a 96-well plate reader and absorbance determined at 595 nm every 15 s for 16 min between vigorous shaking at 37° C. Changes in absorbance were converted to % aggregation by reference to the absorbances of PRP and PPP.

Human NPR-C = Human NPR-C (Homo sapiens (Human), UniProt P17342); experiment: Surface plasmon resonance (SPR) spectroscopy, binding to immobilised human NPR-C; conditions: FIGS. 5, 6 and 7
Chain of Human NPR-C (P17342 27-541): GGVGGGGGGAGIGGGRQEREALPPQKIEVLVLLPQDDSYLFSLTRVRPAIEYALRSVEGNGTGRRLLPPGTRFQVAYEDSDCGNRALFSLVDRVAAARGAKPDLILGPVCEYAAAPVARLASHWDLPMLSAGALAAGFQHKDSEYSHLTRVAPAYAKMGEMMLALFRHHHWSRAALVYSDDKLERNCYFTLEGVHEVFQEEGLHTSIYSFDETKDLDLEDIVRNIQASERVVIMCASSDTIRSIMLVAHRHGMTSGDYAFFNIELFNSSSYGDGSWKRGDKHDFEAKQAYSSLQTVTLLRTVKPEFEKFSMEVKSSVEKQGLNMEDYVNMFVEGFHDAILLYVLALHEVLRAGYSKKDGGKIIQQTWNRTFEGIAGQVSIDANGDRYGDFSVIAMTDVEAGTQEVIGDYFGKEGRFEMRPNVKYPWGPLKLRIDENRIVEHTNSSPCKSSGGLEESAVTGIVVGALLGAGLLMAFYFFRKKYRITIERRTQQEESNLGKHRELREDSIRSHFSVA
Procedure: All SPR analysis was performed on a BIAcore T200 system using series S CM5 sensor chips. Data processing and analysis were performed using BIAevaluation software and Scrubber2. All sensorgrams were double referenced by subtracting the response on a reference flowcell and a blank sample.
Human NPR-C (OriGene, Rockville, USA), was covalently attached to a CM5 chip via amine coupling. A surface density of 2700 RU was used for measurements with natriuretic peptides and the NPR-C antagonist M372049, and a density of 5200 RU for measurements with compound 118. Sequential injections of CNP (0.25, 0.50, 1, 2 & 4 nM) were performed at a flow rate of 30 μL/min for (240 s for each), followed by a dissociation time of 3600 s. Binding site saturation was observed and the surface was regenerated by two injections of 1M NaCl (200 s each). Binding of M372049 (0.94, 1.88, 3.75, 7.5, 15, 30 & 60 nM) and Compound 118 (1.17, 2.34, 4.70, 9.38, 18.75, 37.50, 75 & 150 μM) was analysed by sequential injections (120 s for M372049, 30 s for compound 118) followed by undisturbed dissociation (600 s for M372049, 30 s for compound 118), during which curves returned to baseline. Kinetic parameters were calculated assuming a simple 1:1 (Langmuir) binding.

arterial blood pressure = experiment: Mean arterial pressure measurements in anesthetized mice; format: in vivo
Procedure: Mice were maintained under anesthesia (isoflurane, 1-1.5%, in 100% O2 at 0.4 L·min) throughout the experiment and body temperature was kept constant at 37.5° C. A Millar pressure transducer catheter (Millar Instruments, Houston, Tex., USA) was placed in the carotid artery for arterial blood pressure (BP) measurements and a tube catheter (polyvinyl tubing, 0.61 mm outside diameter) in the jugular vein for intravenous bolus doses of 118 ([…]) and vehicle (10% DMSO in PBS) using a 0.5 mL insulin syringe. A pump (flow 0.5 ml/h) was used for infusion of 118 (1 mg/kg/min) or vehicle (10% dimethylsulfoxide; DMSO in PBS) during 10 min. BP was evaluated throughout.

[2] = 1 μM compound, inhibition of Angiotensin II (100 nM) Ca2+ flux peak fluorescence
[3] = 10 μM compound, inhibition of Angiotensin II (100 nM) Ca2+ flux peak fluorescence

| EC50 (rat mesenteric arteries) | Compound | % inhibition 1 μM [1, 2] | % inhibition 10 μM [1, 3] | % inhibition of human platelet aggregation (at 1 microM) (human platelets) | binding to human NPR-C (SPR) (Human NPR-C) | inhibition at 1 µM [1] | inhibition at 10 µM [1] | inhibition at 1 µM (rat mesenteric arteries; Rattus norvegicus, 1 μM, U46619-contracted third-order arteries) | inhibition at 3 µM (rat mesenteric arteries; Rattus norvegicus, 3 μM, U46619-contracted third-order arteries) | inhibition at 10 µM (rat mesenteric arteries; Rattus norvegicus, 10 μM, U46619-contracted third-order arteries) | inhibition at 30 µM (rat mesenteric arteries; Rattus norvegicus, 30 μM, U46619-contracted third-order arteries) | EC50 (rat mesenteric arteries; Rattus norvegicus) | inhibition at 1 µM (human platelets) | inhibition at 1 µM [1, 2] | inhibition at 10 µM [1, 3] | change in BP after intravenous bolus doses (arterial blood pressure; i.v. bolus, FIG. 2) | change in BP during infusion (arterial blood pressure; infusion 1 mg/kg/min during 10 min, FIG. 3) |
| --- | --- | --- | --- | --- | --- | --- | --- | --- | --- | --- | --- | --- | --- | --- | --- | --- | --- |
| 13.8 nM | C-type natriuretic peptide [CNP, reference compound] | 100% | 100% | 71.8% | binding | – | – | – | – | – | – | – | – | – | – | – | – |
| – | CC(C)(C)OC(=O)CNC(=O)c1cn(Cc2ccccc2)c2ccc(Br)cc2c1=O [Compound 28, tert-butyl 2-(1-benzyl-6-bromo-4-oxo-1,4-dihydroquinoline-3-carboxamido)acetate] | – | – | – | – | 100% | 100% | 22% | 55% | 97% | 100% | 1600 nM | 14.3% | – | – | – | – |
| – | O=C(O)CNC(=O)c1cn(Cc2ccccc2)c2ccc(Br)cc2c1=O [Compound 118, 2-(1-benzyl-6-bromo-4-oxo-1,4-dihydroquinoline-3-carboxamido)acetic acid] | – | – | – | binding | – | – | – | – | – | – | 2800 nM | 16.7% | 95% | 100% | dose-dependent decrease in BP | reduction in BP that was sustained during 10 minutes |
